The text below walks through data of patent publication US3947589A (priority 1971, dated 1976).

The test system of one experiment is citrus melanose. The experiment is described as follows: inhibitory test against Citrus melanose. The experiment is classed as in vivo. Conditions: for pest or weed control at 500 ppm: read-out: Preventive value; for Extent infection: Table 4, untreated 53; for Extent infection / Extent of infection: 500 ppm, about 2-3 weeks after inoculation; for Extent of infection: Table 5, untreated 57. From the text: Experimental example 3 : inhibitory test against Citrus melanose a. Test plant: shoots of about 3 years grown seedlings of citrus "Onshu" (2 - 4 trees planted in about 20 cm claypot) b. Solution used for test
As control fungicide, "Daisen" [trade (trade name, product of Nihon-NohyakuCo., Ltd., wettable powder containing zinc ethylene bis (dithiocarbamate)]was sprayed at 1000 ppm. c. Inoculum and the method of inoculation
In order to prepare suspension of pycnospores, distilled and sterilized water was poured on the culture twigs with citrus melanose in a test tube. The suspension containing about 200 of pycnospores was prepared under the observation of microscope of 150 magnification and then sprayed inoculation on the test plants treated as above. After inoculation, the test plants were placed in the inoculation box at 27°C and relative humidity of above 95% for about 3 days. Then, they were transferred into the greenhouse. […]
d. The method of inspection
About 2 - 3 weeks after inoculation, the entire leaves of shoots was inspected for the development of disease and the state of infection was evaluated on a scale of 0 to 3 as follows:
1 : 1 -- 50 of disease spots
2 : 51 -- 150 of disease spots
3 : above 151 of disease spots
The extent of infection and the preventive value were calculated according to the following equations (I) and (II), respectively. [formula] wherein n1, n2 and n3 are number of leaves inspected to be the states of infection 1, 2 and 3, respectively and N is the total number of leaves. [formula]

The subject of experiment [1] is cucumber downy mildew (Pseudoperonospore cubensis). The experiment is described as follows: inhibitory test against cucumber downy mildew. The experiment is classed as in vivo. Conditions: for pest or weed control at 500 ppm: Cucumis sativus; for Number of leaves infected (outside) / Number of leaves infected (inside): 23rd of May. How it is done: Experimental example 4 : inhibitory test against cucumber downy mildew
Cucumber seeds (variety "Shinhikari No. A") were planted in seed-beds at the biginning of October, three cucumber seeds being planted per seed-bed, and they were grown in a greenhouse made of vinyl resin. This experiment was performed as three-repeated cultivation.
The test plants treated thus were left to spontaneous infection.

Experiment [2] concerns Piricularia oryzae (rice blast). The note with it: 500 ppm.
Experiment [3] has the same test system. Briefly: whole plant or invertebrate. The note with it: Pyricularia oryzae, 48 h, read-out: Preventive value.
The mark [4] stands for this setting: Table 4, about 2-3 weeks after inoculation.
Setting [5] is: Table 6, 500 ppm, four sprays, inside of leaves, read-out: Preventive value (inside).
[6] abbreviates: Table 6, 500 ppm, four sprays, outside of leaves, read-out: Preventive value (outside).
Where [7] appears, read: Table 6, 500 ppm, four sprays, untreated 12.
The mark [8] stands for this setting: Table 6, 500 ppm, four sprays, untreated 22.
The mark [9] stands for this setting: Table 1, 50 ml per pot, two days after infection, untreated 33.0.
[10] abbreviates: read-out: Preventive value (inside).
Setting [11] is: read-out: Preventive value (outside).
The mark [12] stands for this setting: Table 5, about 2-3 weeks after inoculation.
Setting [13] is: Table 7, 500 ppm, four sprays, untreated 13.
[14] abbreviates: Table 7, 500 ppm, four sprays, untreated 15.
[15] abbreviates: Table 7, 500 ppm, four sprays, inside of leaves, read-out: Preventive value (inside).
Setting [16] is: Table 7, 500 ppm, four sprays, outside of leaves, read-out: Preventive value (outside).

Where two headings read alike, the source gives them in different places.

On to `CCCCCCCCCCCC(=O)NCC(=O)O` [compound 1], for which the pest or weed control at 500 ppm is 72% with citrus melanose (setting [4]), 73% in experiment [1] (setting [5]), 67% in experiment [1] (setting [6]) and 95% in experiment [3]. Moreover, the Extent infection with citrus melanose was found to be 15%. In experiment [1] (setting [7]), the “Number of leaves infected (outside)” value was 4. Further, the “Number of leaves infected (inside)” value in experiment [1] (setting [8]) worked out at 6. Further, in experiment [2] (setting [9]), the “Average number of disease lesions per leaf” value (“Average number … per leaf” below) was found to be 1.7.
Regarding `CCCCCCCCCCCC(=O)N[C@H](C(=O)O)C(C)C` [compound 2], the “Average number … per leaf” value in experiment [2] (setting [9]) was found to be 6.6. Further, the pest or weed control at 500 ppm in experiment [3] was determined as 80%.
As for `CCCCCCCCCCCC(=O)NC(Cc1ccc([N+](=O)[O-])cc1)C(=O)O` (centres unmarked) [compound 3], the pest or weed control at 500 ppm in the experiment on citrus melanose (setting [4]) amounted to 50%; in experiment [1] (setting [5]), 59%; in experiment [1] (setting [6]), 50%; in experiment [3], 73%. For the same molecule, the Extent infection in the experiment with citrus melanose turned out to be 26%. Also, the “Number of leaves infected (outside)” value in experiment [1] (setting [7]) worked out at 6. The “Number of leaves infected (inside)” value in experiment [1] (setting [8]) was 9. The “Average number … per leaf” value in experiment [2] (setting [9]) is 8.9.
Consider `CCCCCCCCCCCCCCCCCC(=O)N[C@@H](Cc1ccccc1)C(=O)O` [compound 4], for which the pest or weed control at 500 ppm was 60% with citrus melanose (setting [4]), 47% in experiment [1] (setting [10]), 42% in experiment [1] (setting [11]) and 78% in experiment [3]. In the experiment with citrus melanose, this molecule showed an Extent infection of 21%. In addition, in experiment [1] (setting [7]), the “Number of leaves infected (outside)” value is 7. The “Number of leaves infected (inside)” value in experiment [1] (setting [8]) is given as 10. Besides, the “Average number … per leaf” value in experiment [2] (setting [9]) amounted to 7.3.
For `CCCCCCCC/C=C\CCCCCCCC(=O)NCC(=O)O` [compound 5], the “Average number … per leaf” value in experiment [2] (setting [9]) turned out to be 11.0. Moreover, in experiment [3], the pest or weed control at 500 ppm stood at 67%.
With `CCCCCCCCCCCCCCCCCC(=O)NCC(=O)O` [compound 6], the pest or weed control at 500 ppm in the experiment on citrus melanose (setting [4]) is 68%; in experiment [3], 80%. In addition, in the experiment with citrus melanose, the Extent infection is on record as 17%. The “Average number … per leaf” value in experiment [2] (setting [9]) is reported as 6.6.
On to `CCCCCCCCCCCCCCCCCC(=O)NC(C)C(=O)O` (centres unmarked) [compound 7], for which the pest or weed control at 500 ppm in experiment [1] (setting [5]) turned out to be 64%; in experiment [1] (setting [6]), 58%; in experiment [3] it was 82%. The “Number of leaves infected (outside)” value in experiment [1] (setting [7]) came to 5. The “Number of leaves infected (inside)” value in experiment [1] (setting [8]) was found to be 8. The “Average number … per leaf” value in experiment [2] (setting [9]) came out at 5.9.
As for `CCCCCCCCCCCC(=O)NC(Cc1ccccc1)C(=O)O` (centres unmarked) [compound 8], the pest or weed control at 500 ppm in the experiment on citrus melanose (setting [4]) is 59%; in experiment [1] (setting [5]), 68%; in experiment [1] (setting [6]) it was 75%; in experiment [3], 67%. For the same molecule, the Extent infection with citrus melanose was found to be 22%. In addition, the “Number of leaves infected (outside)” value in experiment [1] (setting [7]) was determined as 3. Moreover, the “Number of leaves infected (inside)” value in experiment [1] (setting [8]) is given as 7. In addition, in experiment [2] (setting [9]), the “Average number … per leaf” value is 11.0.
`CCCCCCCCCCCCCC(=O)NCC(=O)O` [compound 9]: the pest or weed control at 500 ppm in experiment [1] (setting [5]) was 59%; in experiment [1] (setting [6]), 42%; in experiment [3], 70%. The “Number of leaves infected (outside)” value in experiment [1] (setting [7]) worked out at 7. Also, the “Number of leaves infected (inside)” value in experiment [1] (setting [8]) stood at 9. Also, in experiment [2] (setting [9]), the “Average number … per leaf” value is reported as 9.9.
On to `CCCCCCCCCCCC(=O)N[C@@H](CC(=O)O)C(=O)O` [compound 10], for which the pest or weed control at 500 ppm with citrus melanose (setting [4]) was found to be 74%; in experiment [3], 65%. For the same molecule, the Extent infection with citrus melanose was determined as 14%. Also, in experiment [2] (setting [9]), the “Average number … per leaf” value is 11.6.
Take `CCCCCCCCCCCC(=O)N[C@H](C(=O)O)[C@@H](C)O` [compound 11]: the “Average number … per leaf” value in experiment [2] (setting [9]) is reported as 7.6. The pest or weed control at 500 ppm in experiment [3] worked out at 77%.
For `CCCCCCCCCC(=O)N[C@@H](Cc1ccccc1)C(=O)O` [compound 12], the pest or weed control at 500 ppm came out at 73% in experiment [1] (setting [5]), 67% in experiment [1] (setting [6]) and 65% in experiment [3]. Moreover, the “Number of leaves infected (outside)” value in experiment [1] (setting [7]) was found to be 4. In addition, the “Number of leaves infected (inside)” value in experiment [1] (setting [8]) was determined as 6. For the same molecule, in experiment [2] (setting [9]), the “Average number … per leaf” value amounted to 11.6.
Regarding `CCCCCCCCCCCC(=O)N[C@@H](CC(C)C)C(=O)O` [compound 13], the pest or weed control at 500 ppm in experiment [1] (setting [5]) stood at 59%; in experiment [1] (setting [6]) it was 42%; in experiment [3], 73%. The “Number of leaves infected (outside)” value in experiment [1] (setting [7]) amounted to 7. Besides, the “Number of leaves infected (inside)” value in experiment [1] (setting [8]) was found to be 9. Besides, the “Average number … per leaf” value in experiment [2] (setting [9]) worked out at 8.9.
Take `C=CCCCCCCCCC(=O)N[C@@H](CC(C)C)C(=O)O` [compound 14]: the results for the pest or weed control at 500 ppm (with citrus melanose (setting [4]); in experiment [3]) were 65% and 83%, respectively. The Extent infection with citrus melanose was found to be 19%. Also, the “Average number … per leaf” value in experiment [2] (setting [9]) came out at 5.6.
As for `CCCCCCCCCCCC(=O)N(C)CC(=O)O` [compound 15], the “Average number … per leaf” value in experiment [2] (setting [9]) was 7.4. The pest or weed control at 500 ppm in experiment [3] worked out at 88%.
In the case of `CCCCCCCCCC(=O)NC(CCSC)C(=O)O` (centres unmarked) [compound 16], the pest or weed control at 500 ppm came to 54% in the experiment on citrus melanose (setting [4]) and 67% in experiment [3]. This molecule yielded an Extent infection in the experiment with citrus melanose of 24%. Besides, the “Average number … per leaf” value in experiment [2] (setting [9]) is given as 11.0.
In the case of `CCCCCCCCCCCC(=O)N[C@H](C(=O)OCC)C(C)C` [compound 19], the “Average number … per leaf” value in experiment [2] (setting [9]) worked out at 7.3. In addition, the pest or weed control at 500 ppm in experiment [3] was determined as 78%.
The like results for `CCCCCCCCCCCCCC(=O)N[C@@H](CCC(=O)O)C(=O)O` [compound 20] were, in that order, 9.9 and 70%.
Regarding `CCCCCCCCCCCCCC(=O)N[C@@H](CCCNC(=N)N)C(=O)OCC` [compound 21], the pest or weed control at 500 ppm came to 73% with citrus melanose (setting [12]), 47% in experiment [1] (setting [10]), 55% in experiment [1] (setting [11]) and 75% in experiment [3]. The molecule further showed an Extent of infection with citrus melanose of 15%. The “Number of leaves infected (outside)” value in experiment [1] (setting [13]) was found to be 5. Further, the “Number of leaves infected (inside)” value in experiment [1] (setting [14]) is on record as 8. Besides, the “Average number … per leaf” value in experiment [2] (Table 2, untreated 34.2) was 8.5.
On to `CCCCCCCCCCCCCC(=O)N[C@@H](CCCCN)C(=O)OC` [compound 23], for which the pest or weed control at 500 ppm was 64% in the experiment on citrus melanose (setting [12]), 47% in experiment [1] (setting [15]), 45% in experiment [1] (setting [16]) and 82% in experiment [3]. The same molecule returned an Extent of infection with citrus melanose of 21%. For the same molecule, in experiment [1] (setting [13]), the “Number of leaves infected (outside)” value turned out to be 7. Further, in experiment [1] (setting [14]), the “Number of leaves infected (inside)” value came to 8. The “Average number … per leaf” value in experiment [2] (Table 2, untreated 34.2) stood at 6.2.
`CCCCCCCCCCCC(=O)N[C@@H](CCCN)C(=O)OC` [compound 24]: the pest or weed control at 500 ppm amounted to 68% in the experiment on citrus melanose (setting [12]), 47% in experiment [1] (setting [15]), 52% in experiment [1] (setting [16]) and 78% in experiment [3]. The Extent of infection in the experiment on citrus melanose came out at 18%. For the same molecule, in experiment [1] (setting [13]), the “Number of leaves infected (outside)” value is 6. The “Number of leaves infected (inside)” value in experiment [1] (setting [14]) worked out at 8. Moreover, the “Average number … per leaf” value in experiment [2] (Table 2, untreated 34.2) is 7.3.
With `CCCCCCCCCCCCCC(=O)N[C@@H](Cc1c[nH]cn1)C(=O)OC` [compound 25], the “Average number … per leaf” value in experiment [2] (Table 2, untreated 34.2) was determined as 5.1. Besides, in experiment [3], the pest or weed control at 500 ppm was determined as 85%.
The like results for `CCCCCCCCCCCC(=O)N[C@@H](CCCNC(N)=O)C(=O)OC` [compound 26] were, in that order, 6.2 and 82%.
As for `CCCCCCCCCCCCCCCCCC(=O)N[C@@H](CCCNC(=N)N)C(=O)OCC` [compound 28], the pest or weed control at 500 ppm turned out to be 73% in the experiment with citrus melanose (setting [12]) and 78% in experiment [3]. The molecule also gave an Extent of infection with citrus melanose of 15%. The “Average number … per leaf” value in experiment [2] (Table 2, untreated 34.2) was 7.3.
